Data taken from ChEMBL document CHEMBL3351767, “The discovery of Polo-like kinase 4 inhibitors: design and optimization of spiro[cyclopropane-1,3'[3H]indol]-2'(1'H).ones as orally bioavailable antitumor agents” (J Med Chem, 2015).
Values after ≈ are worked out from the molar mass of the structure shown.

What was measured:
[1] = biological target: Serine/threonine-protein kinase PLK1 (Homo sapiens, UniProt P53350); assay: Inhibition of PLK1 (unknown origin) by FRET-based homogeneous assay
[2] = biological target: T1, Receptor-type tyrosine-protein kinase FLT3 (Homo sapiens, UniProt P36888); assay: Inhibition of FLT3 (unknown origin) by FRET-based homogeneous assay
T1 sequence (P36888 whole entry): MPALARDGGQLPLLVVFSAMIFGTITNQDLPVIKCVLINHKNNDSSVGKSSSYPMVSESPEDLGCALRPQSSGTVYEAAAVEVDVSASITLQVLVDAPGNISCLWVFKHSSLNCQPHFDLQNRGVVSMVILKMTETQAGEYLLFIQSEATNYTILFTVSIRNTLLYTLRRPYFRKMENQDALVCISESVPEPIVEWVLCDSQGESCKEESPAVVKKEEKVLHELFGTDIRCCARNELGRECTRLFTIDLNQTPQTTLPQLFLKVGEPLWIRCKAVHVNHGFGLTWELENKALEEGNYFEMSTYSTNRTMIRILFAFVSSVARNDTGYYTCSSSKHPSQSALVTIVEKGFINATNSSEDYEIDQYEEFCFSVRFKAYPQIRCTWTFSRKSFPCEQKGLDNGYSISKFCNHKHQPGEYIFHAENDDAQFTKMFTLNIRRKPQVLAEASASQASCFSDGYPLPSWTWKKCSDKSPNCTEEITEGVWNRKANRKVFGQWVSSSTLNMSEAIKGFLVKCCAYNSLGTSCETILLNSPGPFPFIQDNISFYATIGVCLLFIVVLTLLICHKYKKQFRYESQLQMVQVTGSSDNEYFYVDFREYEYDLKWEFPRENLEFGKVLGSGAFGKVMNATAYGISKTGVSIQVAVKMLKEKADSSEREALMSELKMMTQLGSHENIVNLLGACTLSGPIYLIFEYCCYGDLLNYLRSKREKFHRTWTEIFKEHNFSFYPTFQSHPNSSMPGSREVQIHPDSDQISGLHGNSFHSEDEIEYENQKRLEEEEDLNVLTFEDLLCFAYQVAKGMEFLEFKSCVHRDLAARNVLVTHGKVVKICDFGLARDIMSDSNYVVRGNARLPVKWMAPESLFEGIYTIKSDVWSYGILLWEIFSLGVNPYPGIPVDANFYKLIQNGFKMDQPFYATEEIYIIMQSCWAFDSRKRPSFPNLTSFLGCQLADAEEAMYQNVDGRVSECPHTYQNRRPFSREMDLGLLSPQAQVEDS

[3] = Protein binding in plasma (unknown origin); format: ADME, cell-free; conditions: read-out: PPB (converted)
[4] = Aqueous solubility at pH 7.4; format: physicochemical; conditions: buffer
Cytochrome P450 3A4 = Cytochrome P450 3A4 (Homo sapiens, UniProt P08684); assay: Inhibition of CYP3A4 (unknown origin) using BFC substrate after 30 mins by fluorescence assay; format: ADME
Chain of Cytochrome P450 3A4 (P08684 whole entry): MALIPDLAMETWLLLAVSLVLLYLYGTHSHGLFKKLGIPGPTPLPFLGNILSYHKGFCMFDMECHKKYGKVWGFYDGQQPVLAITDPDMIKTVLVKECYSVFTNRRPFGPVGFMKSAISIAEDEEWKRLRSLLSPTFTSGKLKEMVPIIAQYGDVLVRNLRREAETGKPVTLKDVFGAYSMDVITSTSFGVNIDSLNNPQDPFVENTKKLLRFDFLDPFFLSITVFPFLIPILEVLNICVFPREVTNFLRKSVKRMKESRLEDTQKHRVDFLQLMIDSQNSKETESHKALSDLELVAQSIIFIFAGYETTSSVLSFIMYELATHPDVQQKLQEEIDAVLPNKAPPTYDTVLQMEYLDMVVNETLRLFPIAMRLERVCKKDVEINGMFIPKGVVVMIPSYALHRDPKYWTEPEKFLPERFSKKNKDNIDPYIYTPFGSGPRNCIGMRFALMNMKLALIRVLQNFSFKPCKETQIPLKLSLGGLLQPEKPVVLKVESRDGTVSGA

Cytochrome P450 2D6 = Cytochrome P450 2D6 (Homo sapiens, UniProt P10635); assay: (§1) Inhibition of CYP2D6 (unknown origin) using AMMC substrate after 45 mins by fluorescence assay; format: ADME
Chain of Cytochrome P450 2D6 (P10635 whole entry): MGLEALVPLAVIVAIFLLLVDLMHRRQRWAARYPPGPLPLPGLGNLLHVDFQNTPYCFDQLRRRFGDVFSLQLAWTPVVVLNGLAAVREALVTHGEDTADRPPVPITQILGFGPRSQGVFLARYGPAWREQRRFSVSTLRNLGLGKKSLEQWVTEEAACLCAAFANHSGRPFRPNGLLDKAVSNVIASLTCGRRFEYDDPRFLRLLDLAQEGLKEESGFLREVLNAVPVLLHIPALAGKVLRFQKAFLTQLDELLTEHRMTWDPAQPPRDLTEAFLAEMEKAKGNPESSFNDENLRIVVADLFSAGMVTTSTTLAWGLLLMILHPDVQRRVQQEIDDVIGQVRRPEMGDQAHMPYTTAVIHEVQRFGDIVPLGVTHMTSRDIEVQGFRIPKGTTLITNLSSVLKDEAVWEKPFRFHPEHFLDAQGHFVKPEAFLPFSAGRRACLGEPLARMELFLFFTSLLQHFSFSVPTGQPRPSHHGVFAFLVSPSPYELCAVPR

CYP1A2 = biological target: T2, CYP1A2 (Homo sapiens, UniProt P05177); assay: (§2) Inhibition of CYP1A2 (unknown origin) using CEC substrate after 15 mins by fluorescence assay; format: ADME; conditions: probe CEC
T2 sequence (P05177 whole entry): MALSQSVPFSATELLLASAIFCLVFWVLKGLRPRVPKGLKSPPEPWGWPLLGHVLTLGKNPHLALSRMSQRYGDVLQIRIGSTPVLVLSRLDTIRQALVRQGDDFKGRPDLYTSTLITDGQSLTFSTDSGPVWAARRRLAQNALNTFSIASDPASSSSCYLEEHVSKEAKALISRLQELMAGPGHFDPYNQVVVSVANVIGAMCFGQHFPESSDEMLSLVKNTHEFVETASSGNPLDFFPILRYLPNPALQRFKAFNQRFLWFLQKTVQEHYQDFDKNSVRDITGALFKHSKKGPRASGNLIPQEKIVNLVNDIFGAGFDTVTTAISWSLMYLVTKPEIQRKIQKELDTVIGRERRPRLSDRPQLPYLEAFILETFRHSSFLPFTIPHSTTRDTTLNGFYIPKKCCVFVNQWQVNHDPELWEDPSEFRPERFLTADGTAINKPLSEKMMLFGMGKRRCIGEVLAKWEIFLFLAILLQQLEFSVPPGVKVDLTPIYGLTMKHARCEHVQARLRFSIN

[5] = biological target: Vascular endothelial growth factor receptor 2 (Homo sapiens, UniProt P35968); assay: Inhibition of KDR (unknown origin) by FRET-based homogeneous assay
Chain of Vascular endothelial growth factor receptor 2 (P35968 whole entry): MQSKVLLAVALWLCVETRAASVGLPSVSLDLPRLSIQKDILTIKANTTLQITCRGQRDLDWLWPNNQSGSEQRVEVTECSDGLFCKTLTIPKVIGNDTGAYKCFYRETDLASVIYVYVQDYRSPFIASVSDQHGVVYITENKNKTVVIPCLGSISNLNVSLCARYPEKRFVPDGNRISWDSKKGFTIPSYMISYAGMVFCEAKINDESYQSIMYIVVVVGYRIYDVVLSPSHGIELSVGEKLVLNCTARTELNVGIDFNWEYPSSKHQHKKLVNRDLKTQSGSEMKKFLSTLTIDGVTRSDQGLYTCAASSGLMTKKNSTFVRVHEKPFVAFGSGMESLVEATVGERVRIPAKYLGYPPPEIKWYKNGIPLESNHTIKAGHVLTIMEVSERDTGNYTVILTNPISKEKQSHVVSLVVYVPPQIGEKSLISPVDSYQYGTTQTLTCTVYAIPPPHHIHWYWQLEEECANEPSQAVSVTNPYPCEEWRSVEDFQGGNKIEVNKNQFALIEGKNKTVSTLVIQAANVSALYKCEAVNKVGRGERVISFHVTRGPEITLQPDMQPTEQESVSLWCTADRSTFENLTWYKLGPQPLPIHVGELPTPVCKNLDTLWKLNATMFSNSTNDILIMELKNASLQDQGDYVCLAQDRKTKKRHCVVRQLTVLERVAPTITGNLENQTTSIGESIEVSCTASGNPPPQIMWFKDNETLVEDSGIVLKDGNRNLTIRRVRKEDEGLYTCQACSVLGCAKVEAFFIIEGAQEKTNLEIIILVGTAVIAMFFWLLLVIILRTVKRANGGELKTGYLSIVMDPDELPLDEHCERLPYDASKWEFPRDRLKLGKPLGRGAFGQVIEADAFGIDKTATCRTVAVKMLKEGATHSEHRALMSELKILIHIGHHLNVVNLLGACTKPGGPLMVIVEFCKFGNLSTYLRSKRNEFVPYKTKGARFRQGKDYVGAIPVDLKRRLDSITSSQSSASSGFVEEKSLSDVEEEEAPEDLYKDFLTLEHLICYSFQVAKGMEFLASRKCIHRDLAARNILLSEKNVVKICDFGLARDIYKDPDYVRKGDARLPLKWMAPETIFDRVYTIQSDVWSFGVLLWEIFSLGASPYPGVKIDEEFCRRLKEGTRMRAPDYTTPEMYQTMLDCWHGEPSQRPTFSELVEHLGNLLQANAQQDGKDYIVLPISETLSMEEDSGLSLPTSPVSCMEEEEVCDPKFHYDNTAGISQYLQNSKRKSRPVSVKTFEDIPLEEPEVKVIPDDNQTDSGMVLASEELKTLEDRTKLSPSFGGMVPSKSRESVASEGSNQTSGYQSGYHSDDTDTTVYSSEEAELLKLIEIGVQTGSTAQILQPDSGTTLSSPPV

Aurora kinase B = Aurora kinase B (Homo sapiens, UniProt Q96GD4); assay: Inhibition of AURKB (unknown origin) by FRET-based homogeneous assay
Chain of Aurora kinase B (Q96GD4 whole entry): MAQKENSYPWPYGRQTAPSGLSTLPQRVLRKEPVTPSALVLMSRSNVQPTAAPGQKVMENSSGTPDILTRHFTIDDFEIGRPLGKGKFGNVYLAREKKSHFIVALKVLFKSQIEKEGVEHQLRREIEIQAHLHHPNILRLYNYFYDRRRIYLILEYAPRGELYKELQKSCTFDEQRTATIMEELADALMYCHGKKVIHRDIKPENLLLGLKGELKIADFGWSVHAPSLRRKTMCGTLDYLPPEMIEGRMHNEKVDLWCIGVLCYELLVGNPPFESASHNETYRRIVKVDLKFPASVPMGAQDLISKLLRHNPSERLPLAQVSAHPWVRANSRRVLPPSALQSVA

[6] = Half life in human liver microsomes at 1 uM in presence of NADPH by LC-MS method; format: ADME
[7] = Cmax in SCID mouse at 50 mg/kg, ip after 8 hrs by LCMS/MS method; format: ADME, organism-based; design: dose 50 mg/kg, route intraperitoneal; conditions: in vivo
[8] = biological target: Serine/threonine-protein kinase PLK2 (Homo sapiens, UniProt Q9NYY3); assay: Inhibition of PLK2 (unknown origin) by FRET-based homogeneous assay
Chain of Serine/threonine-protein kinase PLK2 (Q9NYY3 whole entry, the tested form may be a part): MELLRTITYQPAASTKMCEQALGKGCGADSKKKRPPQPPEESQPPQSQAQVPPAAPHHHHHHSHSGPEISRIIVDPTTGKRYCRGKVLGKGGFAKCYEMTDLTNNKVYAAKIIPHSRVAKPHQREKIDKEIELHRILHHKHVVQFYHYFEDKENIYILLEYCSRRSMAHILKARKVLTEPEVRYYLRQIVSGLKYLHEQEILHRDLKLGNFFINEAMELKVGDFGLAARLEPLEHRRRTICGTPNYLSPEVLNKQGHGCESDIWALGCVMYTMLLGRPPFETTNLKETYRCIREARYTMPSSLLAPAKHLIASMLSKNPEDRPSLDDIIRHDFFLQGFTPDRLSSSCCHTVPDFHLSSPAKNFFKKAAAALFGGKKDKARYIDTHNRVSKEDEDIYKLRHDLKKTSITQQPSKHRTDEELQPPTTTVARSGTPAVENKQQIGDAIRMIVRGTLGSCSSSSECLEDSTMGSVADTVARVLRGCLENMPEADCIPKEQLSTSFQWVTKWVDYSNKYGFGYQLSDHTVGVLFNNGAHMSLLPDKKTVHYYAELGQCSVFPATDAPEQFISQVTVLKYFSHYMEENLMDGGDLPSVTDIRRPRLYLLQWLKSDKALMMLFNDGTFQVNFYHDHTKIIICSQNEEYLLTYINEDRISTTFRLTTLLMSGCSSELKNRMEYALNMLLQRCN

[9] = biological target: T3, Serine/threonine-protein kinase PLK4 (Homo sapiens, UniProt O00444); assay: Inhibition of human N-terminal GST-tagged PLK4 (1 to 391 residues) expressed in Escherichia coli incubated for 30 mins by ELISA method
T3 sequence (O00444 whole entry): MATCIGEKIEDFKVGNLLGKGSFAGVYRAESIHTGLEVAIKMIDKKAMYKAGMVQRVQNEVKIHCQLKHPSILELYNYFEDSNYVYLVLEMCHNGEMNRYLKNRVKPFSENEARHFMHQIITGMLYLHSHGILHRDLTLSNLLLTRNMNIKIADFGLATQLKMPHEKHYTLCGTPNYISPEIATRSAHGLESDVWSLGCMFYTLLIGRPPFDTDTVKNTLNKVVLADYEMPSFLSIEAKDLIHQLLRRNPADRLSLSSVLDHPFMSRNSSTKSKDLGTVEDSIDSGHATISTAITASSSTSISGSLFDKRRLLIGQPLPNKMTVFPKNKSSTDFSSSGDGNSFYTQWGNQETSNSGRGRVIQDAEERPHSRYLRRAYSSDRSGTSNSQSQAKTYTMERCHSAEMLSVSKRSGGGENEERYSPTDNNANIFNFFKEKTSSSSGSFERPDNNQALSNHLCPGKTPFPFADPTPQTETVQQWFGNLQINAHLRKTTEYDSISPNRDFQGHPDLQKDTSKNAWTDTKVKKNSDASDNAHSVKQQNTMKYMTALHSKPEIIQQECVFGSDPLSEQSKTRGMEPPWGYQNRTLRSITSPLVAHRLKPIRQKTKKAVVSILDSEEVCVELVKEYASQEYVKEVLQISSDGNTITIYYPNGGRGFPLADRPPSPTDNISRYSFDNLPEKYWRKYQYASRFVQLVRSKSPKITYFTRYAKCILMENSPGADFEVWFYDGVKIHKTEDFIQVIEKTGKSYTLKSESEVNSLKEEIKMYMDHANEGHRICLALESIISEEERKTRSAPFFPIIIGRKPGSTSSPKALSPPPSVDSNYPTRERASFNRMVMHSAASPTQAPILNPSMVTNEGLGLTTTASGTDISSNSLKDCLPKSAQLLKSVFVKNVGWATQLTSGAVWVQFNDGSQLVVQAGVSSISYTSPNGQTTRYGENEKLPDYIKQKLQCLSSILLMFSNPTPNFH

[10] = biological target: Serine/threonine-protein kinase PLK3 (Homo sapiens, UniProt Q9H4B4); assay: Inhibition of PLK3 (unknown origin) by FRET-based homogeneous assay
Chain of Serine/threonine-protein kinase PLK3 (Q9H4B4 whole entry): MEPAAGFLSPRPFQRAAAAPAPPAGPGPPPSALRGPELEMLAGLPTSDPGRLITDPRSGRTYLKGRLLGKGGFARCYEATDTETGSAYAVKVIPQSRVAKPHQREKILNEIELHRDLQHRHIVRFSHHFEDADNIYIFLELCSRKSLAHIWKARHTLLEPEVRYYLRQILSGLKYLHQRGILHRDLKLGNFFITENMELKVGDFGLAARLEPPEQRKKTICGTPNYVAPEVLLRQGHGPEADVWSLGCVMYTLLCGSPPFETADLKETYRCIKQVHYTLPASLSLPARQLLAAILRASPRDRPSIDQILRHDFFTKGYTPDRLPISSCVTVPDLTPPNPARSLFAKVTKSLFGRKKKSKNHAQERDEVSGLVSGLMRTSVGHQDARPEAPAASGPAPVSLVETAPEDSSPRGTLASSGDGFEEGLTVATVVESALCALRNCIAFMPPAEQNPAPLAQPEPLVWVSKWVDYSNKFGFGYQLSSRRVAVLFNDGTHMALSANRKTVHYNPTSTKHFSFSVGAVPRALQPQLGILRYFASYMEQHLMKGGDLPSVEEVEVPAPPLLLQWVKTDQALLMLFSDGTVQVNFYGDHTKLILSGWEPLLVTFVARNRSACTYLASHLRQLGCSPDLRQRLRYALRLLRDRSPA

[11] = Half life in mouse liver microsomes at 1 uM in presence of NADPH by LC-MS method; format: ADME
CYP2D6 = CYP2D6 (Homo sapiens, UniProt P10635); assay: as §1; format: ADME; conditions: probe AMMC
MCF7 = assay: Cytotoxicity against human MCF7 cells after 5 days by SRB assay; format: functional; conditions: MCF7, 120 h
[12] = AUC in SCID mouse at 50 mg/kg, ip after 8 hrs by LCMS/MS method; format: ADME, organism-based; design: time < 8 hr, dose 50 mg/kg, route intraperitoneal; conditions: plasma
Cytochrome P450 2C9 = Cytochrome P450 2C9 (Homo sapiens, UniProt P11712); assay: Inhibition of CYP2C9 (unknown origin) using MFC substrate after 45 mins by fluorescence assay; format: ADME
Chain of Cytochrome P450 2C9 (P11712 whole entry): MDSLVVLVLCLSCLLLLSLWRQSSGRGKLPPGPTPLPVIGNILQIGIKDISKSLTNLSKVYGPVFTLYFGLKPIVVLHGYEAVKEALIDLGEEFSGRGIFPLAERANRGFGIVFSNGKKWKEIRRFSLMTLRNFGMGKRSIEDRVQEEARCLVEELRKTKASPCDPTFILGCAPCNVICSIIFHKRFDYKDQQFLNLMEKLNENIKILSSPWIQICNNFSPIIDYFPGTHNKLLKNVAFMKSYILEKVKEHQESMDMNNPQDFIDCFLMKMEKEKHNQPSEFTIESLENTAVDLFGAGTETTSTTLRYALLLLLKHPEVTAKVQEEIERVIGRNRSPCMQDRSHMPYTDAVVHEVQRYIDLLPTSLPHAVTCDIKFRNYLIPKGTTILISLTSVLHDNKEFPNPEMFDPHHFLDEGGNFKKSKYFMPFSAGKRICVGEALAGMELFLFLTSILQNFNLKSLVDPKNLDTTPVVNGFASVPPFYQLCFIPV

Cytochrome P450 2C19 = Cytochrome P450 2C19 (Homo sapiens, UniProt P33261); assay: Inhibition of CYP2C19 (unknown origin) using MFC substrate after 30 mins by fluorescence assay; format: ADME
Chain of Cytochrome P450 2C19 (P33261 whole entry): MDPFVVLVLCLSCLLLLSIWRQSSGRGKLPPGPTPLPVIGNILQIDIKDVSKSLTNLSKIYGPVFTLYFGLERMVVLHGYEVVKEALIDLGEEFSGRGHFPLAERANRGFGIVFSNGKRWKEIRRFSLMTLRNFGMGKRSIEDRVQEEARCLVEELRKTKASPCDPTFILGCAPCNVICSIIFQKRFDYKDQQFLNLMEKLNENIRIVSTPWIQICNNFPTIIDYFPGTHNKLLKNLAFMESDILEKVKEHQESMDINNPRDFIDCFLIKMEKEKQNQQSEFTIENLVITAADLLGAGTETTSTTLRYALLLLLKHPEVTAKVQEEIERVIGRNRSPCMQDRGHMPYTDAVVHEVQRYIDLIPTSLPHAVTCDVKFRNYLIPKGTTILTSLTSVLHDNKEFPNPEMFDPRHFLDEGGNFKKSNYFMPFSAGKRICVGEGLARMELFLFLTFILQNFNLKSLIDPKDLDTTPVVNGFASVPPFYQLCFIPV

MDA-MB-468 [13] = assay: Antitumor activity against human MDA-MB-468 cells xenografted in mouse assessed as tumor growth inhibition at 50 mg/kg, ip QD for 21 days; format: functional, organism-based; design: dose 50 mg/kg
[14] = Cmax in SCID mouse at 25 mg/kg, po by LCMS/MS method; format: ADME, organism-based; design: dose 25 mg/kg, route oral; conditions: in vivo
[15] = AUC in SCID mouse at 25 mg/kg, po by LCMS/MS method; format: ADME, organism-based; design: dose 25 mg/kg, route oral; conditions: plasma
Cytochrome P450 1A2 = biological target: T4, Cytochrome P450 1A2 (Homo sapiens, UniProt P05177); assay: as §2; format: ADME
T4 sequence (P05177 whole entry): T2 sequence (P05177 whole entry)

MDA-MB-468 [16] = assay: Cytotoxicity against human MDA-MB-468 cells after 5 days by SRB assay; format: functional; conditions: MDA-MB-468, 120 h
[17] = Cytotoxicity against human SKBR3 cells after 5 days by SRB assay; format: functional; conditions: SK-BR-3, 120 h
MDA-MB-231 = assay: Cytotoxicity against human MDA-MB-231 cells after 5 days by SRB assay; format: functional; conditions: MDA-MB-231, 120 h
Mus musculus = assay: Toxicity in human MDA-MB-468 cells xenografted mouse assessed as reduction in body weight at 25 mg/kg, po QD for 21 days; format: organism-based; design: dose 25 mg/kg, route oral; conditions: in vivo, 504 h

Compound	IC50 [1]	IC50 [2]	fraction unbound [3]	solubility [4]	IC50 (Cytochrome P450 3A4)	IC50 (Cytochrome P450 2D6)	IC50 at 15 min (CYP1A2)	IC50 [5]	half-life at 1 µM [6]	Cmax [7]	IC50 [8]	IC50 [9]	IC50 [10]	half-life at 1 µM [11]	AUC at 8 h [12]	IC50 (Cytochrome P450 2C9)	IC50 (Cytochrome P450 2C19)	Cmax [14]	AUC [15]	GI50 (MCF7)	other results
COc1ccc2c(c1)/C(=C\c1ccc3c(/C=C/c4ccc(N5CCN(C)CC5)nc4)n[nH]c3c1)C(=O)N2			0.009	< 0.1 µg/mL	> 1000 nM		> 10000 nM		14 min	90 ng/mL		7.3 nM		2 min	190 ng·h/mL	1600 nM	800 nM			< 10 nM	IC50 at 45 min (CYP2D6): > 10000 nM
Cc1cc(Nc2cc(N3CCN(C)CC3)nc(Sc3ccc(NC(=O)C4CC4)cc3)n2)n[nH]1																					TGI (MDA-MB-468 [13]): 73%

Further lines, with some results ahead:

IC50 [1]	IC50 [2]	fraction unbound [3]	solubility [4]	IC50 (Cytochrome P450 3A4)	IC50 (Cytochrome P450 2D6)	IC50 at 15 min (CYP1A2)	IC50 [5]	half-life at 1 µM [6]	Cmax [7]	IC50 [8]	IC50 [9]	IC50 [10]	half-life at 1 µM [11]	AUC at 8 h [12]	IC50 (Cytochrome P450 2C9)	IC50 (Cytochrome P450 2C19)	Cmax [14]	AUC [15]	Compound	GI50 (MCF7)	other results
> 100000 nM	35 nM	0.011	0.21 µg/mL (≈ 0.576 µM)	1000 nM	20000 nM	> 10000 nM	34 nM	29 min	< 10 ng/mL	> 100000 nM	2.4 nM	> 100000 nM	6 min						O=C1Nc2ccccc2/C1=C\c1ccc2c(/C=C/c3ccncc3)n[nH]c2c1		IC50 (Aurora kinase B): 24 nM
> 100000 nM		0.053	1.7 µg/mL (≈ 3.91 µM)	> 10000 nM	3100 nM		110 nM	> 60 min	2600 ng/mL	> 100000 nM		> 100000 nM	13 min	7200 ng·h/mL	> 1000 nM	> 1000 nM	290 ng/mL	310 ng·h/mL	CN(C)Cc1ccc(/C=C/c2n[nH]c3cc([C@@H]4C[C@@]45C(=O)Nc4ccccc45)ccc23)cc1 (relative stereo)	< 10 nM	IC50 (Cytochrome P450 1A2): > 10000 nM; GI50 (MDA-MB-468 [16]): < 10 nM; GI50 [17]: 17800 nM; GI50 (MDA-MB-231): < 10 nM; Activity (Mus musculus): Non-toxic
	19 nM			> 1000 nM	> 10000 nM		910 nM								850 nM	750 nM	350 ng/mL	730 ng·h/mL	COc1ccc2c(c1)[C@]1(C[C@H]1c1ccc3c(/C=C/c4ccc(CN(C)C)cc4)n[nH]c3c1)C(=O)N2 (relative stereo)	< 1 nM	IC50 (Cytochrome P450 1A2): > 10000 nM; GI50 (MDA-MB-468 [16]): 10 nM; GI50 [17]: 6400 nM; GI50 (MDA-MB-231): < 10 nM; Activity (Mus musculus): Non-toxic
